Data as given in US20130217722A1, “NOVEL COMPOUND USEFUL FOR THE TREATMENT OF DEGENERATIVE AND INFLAMMATORY DISEASES” (priority 2012, published 2013).
Several values for one entry are separate records, joined by “and”; a condition that tells them apart may be missing. Equal entries are not always repeated.

Experiments:
rat CIA model = test: Rat collagen induced arthritis (CIA) model; format: in vivo; conditions: p.o., therapeutic dosing day 16 to day 30
Protocol: Completed Freund's adjuvant (CFA) and incomplete Freund's adjuvant (IFA) were purchased from Difco. Bovine collagen type II (CII), lipopolysaccharide (LPS), and Enbrel was obtained from Chondrex (Isle d'Abeau, France); Sigma (P4252, L'Isle d'Abeau, France), Whyett (25 mg injectable syringe, France) Acros Organics (Palo Alto, Calif.), respectively. All other reagents used were of reagent grade and all solvents were of analytical grade.
Dark Agouti rats (male, 7-8 weeks old) were obtained from Harlan Laboratories (Maison-Alfort, France). Rats were kept on a 12 h light/dark cycle (0700-1900). Temperature was maintained at 22° C., and food and water were provided ad libitum.
One day before the experiment, CII solution (2 mg/mL) was prepared with 0.05 M acetic acid and stored at 4° C. Just before the immunization, equal volumes of adjuvant (IFA) and CII were mixed by a homogenizer in a pre-cooled glass bottle in an ice water bath. Extra adjuvant and prolonged homogenization may be required if an emulsion is not formed. […]
Arthritis is scored according to the method of Khachigian 2006, Lin et al 2007 and Nishida et al. 2004). […]
The area under the curve (AUC) from day 1 to day 14 was calculated for each individual rat. The AUC of each animal was divided by the average AUC obtained for the vehicle in the study from which the data on that animal was obtained and multiplied by 100 (i.e. the AUC was expressed as a percentage of the average vehicle AUC per study).
The clinical score difference for each animal was divided by the average clinical score difference obtained for the vehicle in the study from which the data on that animal was obtained and multiplied by 100 (i.e. the difference was expressed as a percentage of the average clinical score difference for the vehicle per study).
Clinically, body weight loss is associated with arthritis (Shelton et al., 2005; Rall, 2004; Walsmith et al., 2004). […] The change in body weight (%) after onset of arthritis was calculated as follows: […]

JAK1 = molecular target: T1, JAK1 (Homo sapiens, UniProt P23458); test: JAK1 Ulight-JAK1 peptide assay; format: biochemical
T1 construct: Recombinant human JAK1 (catalytic domain, amino acids 866-1154; catalog number PV4774) was purchased from Invitrogen; purchased Invitrogen PV4774
Protocol: Recombinant human JAK1 (catalytic domain, amino acids 866-1154; catalog number PV4774) was purchased from Invitrogen. 1 ng of JAK1 was incubated with 20 nM Ulight-JAK1(tyr1023) peptide (Perkin Elmer catalog number TRF0121) in kinase reaction buffer (25 mM MOPS pH6.8, 0.01% Brij-35, 5 mM MgCl2, 2 mM DTT, 7 μM ATP) with or without 4 μL containing test compound or vehicle (DMSO, 1% final concentration), in a total volume of 20 μL, in a white 384 Opti plate (Perkin Elmer, catalog number 6007290). […] Readout is performed using the Envision with excitation at 320 nm and measuring emission at 615 nm (Perkin Elmer). Kinase activity was calculated by subtracting relative fluorescence units (RFU) obtained in the presence of a positive control inhibitor (10 μM staurosporine) from RFU obtained in the presence of vehicle. The ability of a test compound to inhibit this activity was determined as:
Percentage inhibition=((RFU determined for sample with test compound present−RFU determined for sample with positive control inhibitor) divided by (RFU determined in the presence of vehicle−RFU determined for sample with positive control inhibitor))*100.
Dose dilution series were prepared for the compounds enabling the testing of dose-response effects in the JAK1 assay and the calculation of the IC50 for the compound. […] The data are expressed as the average IC50 from the assays ±standard error of the mean.

T1 sequence (P23458 866-1154): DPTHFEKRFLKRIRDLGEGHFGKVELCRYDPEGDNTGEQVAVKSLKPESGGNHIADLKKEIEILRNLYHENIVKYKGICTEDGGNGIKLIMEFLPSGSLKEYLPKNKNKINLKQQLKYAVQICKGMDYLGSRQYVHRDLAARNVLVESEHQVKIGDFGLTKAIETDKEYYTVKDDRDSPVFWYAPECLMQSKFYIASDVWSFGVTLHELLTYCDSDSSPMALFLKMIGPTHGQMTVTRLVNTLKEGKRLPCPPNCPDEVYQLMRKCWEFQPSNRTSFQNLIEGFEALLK

selectivity for JAK1 vs the other JAK family members (JAK2, JAK3, and TYK2) (JAK1): at least 9 fold
SMILES: CCc1cc(C2=CCN(C(=O)CC#N)CC2)ccc1N(C)c1cc2c(cn1)ncn2C [Compound 1]
efficacy in rat CIA model (rat CIA model; 1 mg/kg): statistically significant efficacy | efficacy in rat CIA model (rat CIA model; 3 mg/kg): statistically significant efficacy | efficacy in rat CIA model (rat CIA model; 10 mg/kg): statistically significant efficacy | IC50 (JAK1; Ulight-JAK1(tyr1023) peptide, 7 μM ATP, individual determinations, read-out: IC50 against JAK1): 1.37 nM and 1.47 nM and 1.6 nM and 3.08 nM and 1.13 nM and 1.45 nM (2×) and 1.92 nM and 2.34 nM and 2.42 nM and 1.42 nM and 4.09 nM and 4.14 nM and 3.63 nM and 3.46 nM and 2.31 nM and 0.815 nM and 6.84 nM and 6.14 nM and 0.756 nM
